# In publication PMC12155096 (International Journal of Molecular Sciences, 2025):
# Structures can show the parent of a compound that is named as a salt. Where two headings read alike, the source gives them in different places.
# How the values were obtained:
# [1] = molecular target: T1, CYP3A4 (Homo sapiens, UniProt P08684); test: biochemical
# [2] = molecular target: human CYP2D6 (Homo sapiens, UniProt P10635)
# [3] = molecular target: Photinus pyralis (firefly) luciferase (Photinus pyralis, UniProt P08659); test: biochemical; format: biochemical
# Chain of Photinus pyralis (firefly) luciferase (P08659 whole entry): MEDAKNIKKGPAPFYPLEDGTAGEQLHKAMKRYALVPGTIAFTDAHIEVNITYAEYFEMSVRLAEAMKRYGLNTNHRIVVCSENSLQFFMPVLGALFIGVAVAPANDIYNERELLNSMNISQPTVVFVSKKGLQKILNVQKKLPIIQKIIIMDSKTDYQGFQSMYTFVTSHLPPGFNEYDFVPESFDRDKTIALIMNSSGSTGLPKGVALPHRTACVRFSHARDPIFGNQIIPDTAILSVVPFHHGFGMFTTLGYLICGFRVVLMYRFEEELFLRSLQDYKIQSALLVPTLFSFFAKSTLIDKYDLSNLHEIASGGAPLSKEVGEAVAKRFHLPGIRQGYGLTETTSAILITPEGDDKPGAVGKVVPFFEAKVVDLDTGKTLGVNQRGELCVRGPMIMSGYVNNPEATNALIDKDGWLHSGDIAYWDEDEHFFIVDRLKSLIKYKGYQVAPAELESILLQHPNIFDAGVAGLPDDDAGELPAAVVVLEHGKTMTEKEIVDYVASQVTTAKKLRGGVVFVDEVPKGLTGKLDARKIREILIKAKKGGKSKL
# [4] = molecular target: T2, human CYP2C19 (Homo sapiens, UniProt P33261); test: biochemical
# T2 sequence (P33261 whole entry): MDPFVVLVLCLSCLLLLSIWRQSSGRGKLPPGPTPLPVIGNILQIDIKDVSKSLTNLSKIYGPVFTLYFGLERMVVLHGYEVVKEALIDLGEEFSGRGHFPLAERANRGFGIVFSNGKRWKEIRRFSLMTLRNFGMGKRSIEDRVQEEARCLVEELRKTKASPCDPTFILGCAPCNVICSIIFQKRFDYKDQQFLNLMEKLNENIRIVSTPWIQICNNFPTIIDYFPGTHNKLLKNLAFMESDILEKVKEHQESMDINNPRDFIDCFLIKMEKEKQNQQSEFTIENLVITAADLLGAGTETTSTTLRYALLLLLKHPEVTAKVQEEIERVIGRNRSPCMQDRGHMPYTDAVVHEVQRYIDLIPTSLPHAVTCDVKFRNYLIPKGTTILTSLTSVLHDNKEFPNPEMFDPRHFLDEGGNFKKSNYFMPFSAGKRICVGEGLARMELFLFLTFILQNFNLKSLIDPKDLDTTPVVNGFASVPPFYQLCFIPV
# [5] = molecular target: T3, human CYP2C9 (Homo sapiens, UniProt P11712); test: biochemical
# T3 sequence (P11712 whole entry): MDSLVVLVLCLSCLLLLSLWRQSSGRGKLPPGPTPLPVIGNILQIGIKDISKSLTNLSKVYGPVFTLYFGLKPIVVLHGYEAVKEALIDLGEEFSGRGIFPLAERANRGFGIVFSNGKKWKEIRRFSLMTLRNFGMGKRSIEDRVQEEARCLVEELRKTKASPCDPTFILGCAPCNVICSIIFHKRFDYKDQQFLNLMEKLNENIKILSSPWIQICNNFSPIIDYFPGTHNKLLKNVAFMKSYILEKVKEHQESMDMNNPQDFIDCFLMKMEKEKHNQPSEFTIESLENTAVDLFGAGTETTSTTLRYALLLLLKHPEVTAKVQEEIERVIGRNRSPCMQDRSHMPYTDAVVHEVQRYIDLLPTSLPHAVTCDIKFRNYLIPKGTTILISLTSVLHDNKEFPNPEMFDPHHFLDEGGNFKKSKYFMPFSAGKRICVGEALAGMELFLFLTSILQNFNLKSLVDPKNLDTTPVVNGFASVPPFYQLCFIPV
# [6] = molecular target: T4, human CYP1A2 (Homo sapiens, UniProt P05177); test: biochemical
# T4 sequence (P05177 1-516): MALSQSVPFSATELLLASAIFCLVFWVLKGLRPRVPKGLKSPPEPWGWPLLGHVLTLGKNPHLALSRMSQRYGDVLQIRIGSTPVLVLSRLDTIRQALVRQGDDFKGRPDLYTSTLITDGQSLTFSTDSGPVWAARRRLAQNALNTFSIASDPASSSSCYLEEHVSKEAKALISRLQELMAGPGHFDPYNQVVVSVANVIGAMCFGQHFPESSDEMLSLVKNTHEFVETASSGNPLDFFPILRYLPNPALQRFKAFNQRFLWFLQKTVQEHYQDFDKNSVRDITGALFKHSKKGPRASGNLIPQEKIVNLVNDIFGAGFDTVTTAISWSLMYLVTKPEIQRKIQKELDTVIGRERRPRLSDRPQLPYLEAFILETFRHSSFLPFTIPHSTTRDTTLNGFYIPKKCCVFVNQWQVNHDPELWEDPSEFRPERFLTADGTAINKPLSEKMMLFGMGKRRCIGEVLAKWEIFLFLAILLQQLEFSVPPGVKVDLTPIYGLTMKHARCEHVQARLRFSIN
# [7] = molecular target: T4, human CYP1A2
# [8] = molecular target: T3, human CYP2C9
# [9] = molecular target: T2, human CYP2C19
# [10] = molecular target: T1, CYP3A4
# [11] = CYP3A4 IC50 (half-maximal inhibitory concentration)
# [12] = CYP2C19 IC50 (half-maximal inhibitory concentration)
# [13] = CYP2C9 IC50 (half-maximal inhibitory concentration)
# [14] = CYP3A4 AC50 (half-maximal activity concentration)
# [15] = CYP2C19 AC50 (half-maximal activity concentration)
# [16] = CYP1A2 AC50 (half-maximal activity concentration)
# [17] = CYP1A2 IC50 (half-maximal inhibitory concentration)
# Chain of human CYP2D6 (P10635 whole entry): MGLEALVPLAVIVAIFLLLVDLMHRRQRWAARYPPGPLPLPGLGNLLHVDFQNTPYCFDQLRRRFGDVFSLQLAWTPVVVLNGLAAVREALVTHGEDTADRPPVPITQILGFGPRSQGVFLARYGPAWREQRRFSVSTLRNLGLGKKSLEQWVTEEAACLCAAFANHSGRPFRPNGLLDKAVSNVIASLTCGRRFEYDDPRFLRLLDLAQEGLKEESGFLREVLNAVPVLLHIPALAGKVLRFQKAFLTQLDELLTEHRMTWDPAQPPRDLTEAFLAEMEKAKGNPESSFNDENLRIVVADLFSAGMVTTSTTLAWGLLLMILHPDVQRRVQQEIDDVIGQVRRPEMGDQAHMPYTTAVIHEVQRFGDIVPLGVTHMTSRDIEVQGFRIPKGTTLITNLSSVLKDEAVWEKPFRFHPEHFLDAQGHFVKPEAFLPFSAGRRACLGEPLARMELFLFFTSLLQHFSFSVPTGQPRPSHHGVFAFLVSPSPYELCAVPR
# T1 sequence (P08684 whole entry): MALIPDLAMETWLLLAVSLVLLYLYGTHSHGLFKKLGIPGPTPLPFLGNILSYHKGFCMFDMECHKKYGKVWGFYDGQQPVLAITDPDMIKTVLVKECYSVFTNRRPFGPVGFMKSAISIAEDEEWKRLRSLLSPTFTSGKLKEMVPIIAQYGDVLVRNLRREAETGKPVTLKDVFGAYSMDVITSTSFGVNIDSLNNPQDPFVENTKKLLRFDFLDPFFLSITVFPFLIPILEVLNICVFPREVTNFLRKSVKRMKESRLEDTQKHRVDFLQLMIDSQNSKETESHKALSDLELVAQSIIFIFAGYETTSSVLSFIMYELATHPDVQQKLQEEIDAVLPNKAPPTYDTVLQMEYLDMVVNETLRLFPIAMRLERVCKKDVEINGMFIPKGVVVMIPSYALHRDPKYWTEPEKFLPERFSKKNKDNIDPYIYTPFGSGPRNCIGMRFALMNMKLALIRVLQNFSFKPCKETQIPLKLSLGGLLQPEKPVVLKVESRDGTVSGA
structure (smiles),measurement,setting,value
C=CC(=O)OCCn1c(=O)n(CCOC(=O)C=C)c(=O)n(CCOC(=O)C=C)c1=O,IC50,[1],0.25 µM
same,CYP2D6 IC50 (half-maximal inhibitory concentration),[2],Inactive
same,Luciferase IC50 (half-maximal inhibitory concentration),[3],Inactive
same,IC50,[4],4.01 µM
same,IC50,[5],35.7 µM
same,IC50,[6],58.1 µM
COC(=O)N(C(=O)N1COC2(C(=O)OC)Cc3cc(Cl)ccc3C2=N1)c1ccc(OC(F)(F)F)cc1 (racemic) [(+-)-Indoxacarb],IC50,[1]; [11],6.03 µM
same,CYP2D6 IC50 (half-maximal inhibitory concentration),[2],Inactive
same,Luciferase IC50 (half-maximal inhibitory concentration),[3],Inactive
same,CYP1A2 IC50 (half-maximal inhibitory concentration),[7],Inactive
same,IC50,[4]; [12],0.28 µM
same,IC50,[5]; [13],4.76 µM
"O=C(Cc1ccccc1)c1ccccc1 [1,2-Diphenylethanone]",AC50,[1]; [14],7.68 µM
same,CYP2D6 AC50 (half-maximal activity concentration),[2],Inconclusive inhibitor
same,AC50,[4]; [15],12.8 µM
same,CYP2C9 AC50 (half-maximal activity concentration),[8],Inconclusive inhibitor
same,AC50,[6]; [16],12.6 µM
O=C1c2ccccc2C(=O)c2c(Cl)cccc21 [1-Chloroanthraquinone],AC50,[1],2.37 µM
same,CYP2D6 IC50 (half-maximal inhibitory concentration),[2],Inactive
same,Luciferase IC50 (half-maximal inhibitory concentration),[3],Inactive
same,AC50,[4],13.9 µM
same,IC50,[4],13.9 µM
same,AC50,[5],12.6 µM
same,IC50,[5],12.6 µM
same,AC50,[6],0.05 µM
same,IC50,[6],0.05 µM
CC(=O)c1ccc2ccccc2c1 [2'-Acetonaphthone],AC50,[1]; [14],34.4 µM
same,CYP2D6 AC50 (half-maximal activity concentration),[2],Inconclusive inhibitor
same,AC50,[4]; [15],45 µM
same,CYP2C9 AC50 (half-maximal activity concentration),[8],Inactive
same,AC50,[6]; [16],9.34 µM
"COC(=O)COc1ccc(Cl)cc1Cl [2,4-D-methyl]",AC50,[1]; [14],44 µM
same,CYP2D6 AC50 (half-maximal activity concentration),[2],Inactive
same,AC50,[4]; [15],71.9 µM
same,CYP2C9 AC50 (half-maximal activity concentration),[8],Inactive
same,AC50,[6]; [16],15.4 µM
Nc1ccc2c3c(cccc13)-c1ccccc1-2 [3-Aminofluoranthene],IC50,[1]; CYP3A4 IC50,19.8 µM
same,CYP2D6 IC50,[2],Inactive
same,IC50,[3],27.8 µM
same,IC50,[4]; CYP2C19 IC50,21.2 µM
same,IC50,[5]; CYP2C9 IC50,34.7 µM
same,IC50,[6]; CYP1A2 IC50,0.13 µM
Cc1ccc2cc3c(ccc4ccccc43)c3c2c1CC3 [3-Methylcholanthrene],IC50,[1]; CYP3A4 IC50,8.02 µM
same,CYP2D6 IC50,[2],Inactive
same,IC50,[3],6.94 µM
same,IC50,[4]; CYP2C19 IC50,22.4 µM
same,IC50,[5]; CYP2C9 IC50,6.43 µM
same,IC50,[6]; CYP1A2 IC50,0.39 µM
COc1ccc(COC(C)=O)cc1 [4-Methoxybenzyl acetate],AC50,[1],40.8 µM
same,CYP2D6 AC50 (half-maximal activity concentration),[2],Inactive
same,AC50,[4],53.7 µM
same,CYP2C9 AC50 (half-maximal activity concentration),[8],Inactive
same,AC50,[6],28.9 µM
"Cc1c2ccccc2c(C)c2c1ccc1ccccc12 [7,12-Dimethylbenz(a)anthracene]",IC50,[1]; CYP3A4 IC50,22.6 µM
same,CYP2D6 IC50,[2],Inactive
same,IC50,[3],32.7 µM
same,IC50,[4]; CYP2C19 IC50,6.09 µM
same,IC50,[5]; CYP2C9 IC50,27.3 µM
same,IC50,[6]; CYP1A2 IC50,0.5 µM
O=[N+]([O-])c1cccc2cccnc12 [8-Nitroquinoline],AC50,[1]; [14],38 µM
same,CYP2D6 AC50 (half-maximal activity concentration),[2],Inactive
same,CYP2C19 AC50 (half-maximal activity concentration),[9],Inconclusive inhibitor
same,CYP2C9 AC50 (half-maximal activity concentration),[8],Inactive
same,AC50,[6]; [16],33.9 µM
O=C1c2ccccc2-c2ccccc21 [9-Fluorenone],AC50,[1],10.4 µM
same,CYP2D6 IC50 (half-maximal inhibitory concentration),[2],Inactive
same,IC50,[3],67.7 µM
same,AC50,[4],43.8 µM
same,IC50,[4],43.8 µM
same,AC50,[5],67.7 µM
same,IC50,[5],67.7 µM
same,AC50,[6],0.45 µM
same,IC50,[6],0.45 µM
COc1ccc(-c2ccccc2)cc1NNC(=O)OC(C)C [Bifenazate],IC50,[1]; [11],1.51 µM
same,Luciferase IC50 (half-maximal inhibitory concentration),[3],Inactive
same,IC50,[4]; [12],0.49 µM
same,IC50,[5]; [13],2.33 µM
same,IC50,[6]; [17],4.75 µM
COC(=O)c1cccc(C(=O)OC)c1 [Dimethyl isophthalate],AC50,[1],52.6 µM
same,CYP2D6 AC50 (half-maximal activity concentration),[2],Inactive
same,CYP2C19 AC50 (half-maximal activity concentration),[9],Inconclusive inhibitor
same,CYP2C9 AC50 (half-maximal activity concentration),[8],Inactive
same,AC50,[6],9.71 µM
COC(=O)c1ccc(C(=O)OC)cc1 [Dimethyl terephthalate],AC50,[1]; [14],40.1 µM
same,CYP2D6 AC50 (half-maximal activity concentration),[2],Inactive
same,CYP2C19 AC50 (half-maximal activity concentration),[9],Inactive
same,CYP2C9 AC50 (half-maximal activity concentration),[8],Inactive
same,AC50,[6]; [16],9.66 µM
O=S1(=O)OCC2C(CO1)C1(Cl)C(Cl)=C(Cl)C2(Cl)C1(Cl)Cl (stereo not shown) [Endosulfan sulfate],IC50,[1]; CYP3A4 IC50,0.22 µM
same,CYP2D6 IC50,[2],Inactive
same,IC50,[3],53.2 µM
same,IC50,[4]; CYP2C19 IC50,2.25 µM
same,IC50,[5]; CYP2C9 IC50,18.7 µM
same,IC50,[6]; CYP1A2 IC50,47.5 µM
CCCCc1c(C)nc(NCC)[nH]c1=O [Ethirimol],AC50,[1]; [14],31.8 µM
same,CYP2D6 AC50 (half-maximal activity concentration),[2],Inactive
same,CYP2C19 AC50 (half-maximal activity concentration),[9],Inconclusive inhibitor
same,CYP2C9 AC50 (half-maximal activity concentration),[8],Inactive
same,AC50,[6]; [16],31.1 µM
CCN(Cc1c(F)cccc1Cl)c1c([N+](=O)[O-])cc(C(F)(F)F)cc1[N+](=O)[O-] [Flumetralin],IC50,[1]; [11],0.38 µM
same,CYP2D6 IC50 (half-maximal inhibitory concentration),[2],Inactive
same,Luciferase IC50 (half-maximal inhibitory concentration),[3],Inactive
same,CYP1A2 IC50 (half-maximal inhibitory concentration),[7],Inactive
same,IC50,[4]; [12],2.22 µM
same,IC50,[5],7.39 µM
CC(=O)[C@H]1CC[C@H]2[C@@H]3CC[C@H]4C[C@](C)(O)CC[C@]4(C)[C@H]3CC[C@]12C [Ganaxolone],AC50,[1]; [14],3.37 µM
same,CYP2D6 AC50 (half-maximal activity concentration),[2],Inactive
same,CYP2C19 AC50 (half-maximal activity concentration),[9],Inactive
same,CYP2C9 AC50 (half-maximal activity concentration),[8],Inactive
same,AC50,[6]; [16],25.3 µM
CNC(=O)Oc1ccccc1C(C)C [Isoprocarb],AC50,[1]; [14],49.3 µM
same,CYP2D6 AC50 (half-maximal activity concentration),[2],Inactive
same,AC50,[4]; [15],63.5 µM
same,CYP2C9 AC50 (half-maximal activity concentration),[8],Inconclusive inhibitor
same,AC50,[6]; [16],35.6 µM
CO/N=C(/C(=O)OC)c1ccccc1COc1ccccc1C [Kresoxim-methyl],IC50,[1]; [11],9.48 µM
same,CYP2D6 IC50 (half-maximal inhibitory concentration),[2],Inactive
same,Luciferase IC50 (half-maximal inhibitory concentration),[3],Inactive
same,IC50,[4]; [12],0.51 µM
same,IC50,[5]; [13],19.6 µM
same,IC50,[6]; [17],22 µM
CCN(CC)C(=O)C(C)Oc1cccc2ccccc12 (stereo not shown) [Napropamide],IC50,[1]; [11],7.56 µM
same,CYP2D6 IC50 (half-maximal inhibitory concentration),[2],Inactive
same,Luciferase IC50 (half-maximal inhibitory concentration),[3],Inactive
same,IC50,[4]; [12],0.66 µM
same,IC50,[5]; [13],29.9 µM
same,IC50,[6]; [17],25 µM
O=[N+]([O-])c1c(Cl)c(Cl)c(Cl)c(Cl)c1Cl [Pentachloronitrobenzene],AC50,[1]; [14],4.7 µM
same,CYP2D6 AC50 (half-maximal activity concentration),[2],Inactive
same,CYP2C19 AC50 (half-maximal activity concentration),[9],Inconclusive inhibitor
same,CYP2C9 AC50 (half-maximal activity concentration),[8],Inconclusive inhibitor
same,AC50,[6]; [16],1.94 µM
Cc1ccc2ccccc2n1 [Quinaldine],AC50,[1]; [14],47.7 µM
same,CYP2D6 AC50 (half-maximal activity concentration),[2],Inactive
same,CYP2C19 AC50 (half-maximal activity concentration),[9],Inactive
same,CYP2C9 AC50 (half-maximal activity concentration),[8],Inactive
same,AC50,[6]; [16],44 µM
CCNc1nc(NCC)nc(SC)n1 [Simetryn],AC50,[1]; [14],46.2 µM
same,CYP2D6 AC50 (half-maximal activity concentration),[2],Inactive
same,CYP2C19 AC50 (half-maximal activity concentration),[9],Inconclusive inhibitor
same,CYP2C9 AC50 (half-maximal activity concentration),[8],Inconclusive activator
same,AC50,[6]; [16],8.11 µM
CCNc1nc(NC(C)(C)C)nc(SC)n1 [Terbutryn],AC50,[1]; [14],11.5 µM
same,CYP2D6 AC50 (half-maximal activity concentration),[2],Inactive
same,AC50,[4]; [15],39.6 µM
same,CYP2C9 AC50 (half-maximal activity concentration),[8],Inconclusive activator
same,AC50,[6]; [16],7.74 µM
O[Si](c1ccccc1)(c1ccccc1)c1ccccc1 [Triphenylsilanol],AC50,[1]; [14],13.7 µM
same,CYP2D6 IC50 (half-maximal inhibitory concentration),[2],Inactive
same,Luciferase IC50 (half-maximal inhibitory concentration),[3],Inactive
same,CYP1A2 AC50 (half-maximal activity concentration),[7],Inconclusive inhibitor
same,CYP1A2 IC50 (half-maximal inhibitory concentration),[7],Inactive
same,CYP3A4 IC50 (half-maximal inhibitory concentration),[10],13.71 ± 1.89 (172 ± 26) µM
same,AC50,[4]; [15],0.57 µM
same,IC50,[4]; [12],0.57 µM
same,AC50,[5]; CYP2C9 AC50 (half-maximal activity concentration),0.53 µM
same,IC50,[5]; [13],0.53 µM
COC(=O)C1=C(C)NC(C)=C(C(=O)OCCc2ccc(N3CCN(C(c4ccccc4)c4ccccc4)CC3)cc2)C1c1cccc([N+](=O)[O-])c1 (stereo not shown) [Watanidipine],IC50,[1],2.38 µM
same,CYP2D6 IC50 (half-maximal inhibitory concentration),[2],Inactive
same,Luciferase IC50 (half-maximal inhibitory concentration),[3],Inactive
same,IC50,[4],8.39 µM
same,IC50,[5],0.49 µM
same,IC50,[6],14.6 µM
O=c1c2ccccc2oc2ccccc12 [Xanthone],AC50,[1],14.5 µM
same,CYP2D6 IC50 (half-maximal inhibitory concentration),[2],Inactive
same,IC50,[3],23.6 µM
same,AC50,[4],29.7 µM
same,IC50,[4],29.7 µM
same,AC50,[5],35.7 µM
same,IC50,[5],35.7 µM
same,AC50,[6],0.5 µM
same,IC50,[6],0.5 µM
